The values below are quoted from earlier work in patent US20110177168A1, “COMPOSITION” (SmithKline Beecham Limited, priority 2000, published 2011).

Where [1] appears, read: oral doses of conventional immediate release tablets.

`CC(=O)Nc1ccc(O)cc1` [paracetamol, N-acetyl-p-aminophenol]: under setting [1], the bioavailability (in general, the share of a dose that reaches the circulation, judged against a reference dose that is usually intravenous) is listed as 80% and the tmax is 0.5 to 1.5 h. Moreover, the elimination half-life (reported) is 1.9 to 2.5 h.
